In US20060258598A1, “Alpha-keto carbonyl calpain inhibitors” (priority 2003, published 2006):

How the values were obtained:
[1] = tested on: cellular calpains in C2C12 myoblasts; test: Calpain inhibition assay in C2C12 myoblasts; type: cell-based; conditions: 2 h incubation, calcium ionophore Br-A-23187, read-out: Calp I IC50 Myoblast
How it was run: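 Confluent C2C12 myoblasts in fusion medium (DMEM, 5% horse serum) exposed to compound for 2 h at 37 °C, then loaded with 400 μM Suc-Leu-Tyr-AMC for 20 min at room temperature in buffer with 4 mM CaCl2, HEPES pH 7.25. Calpains activated by Br-A-23187 ionophore (20 μM in added buffer); AMC fluorescence read each minute for 60 min at 37 °C to derive IC50.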

[2] = target: T1, 20S Proteasome (Oryctolagus cuniculus, UniProt G1T4Q9); test: 20S Proteasome assay; type: biochemical, Rabbit; conditions: substrate Suc-Leu-Leu-Val-Tyr-AMC; read-out: 20S Prot IC50
T1 sequence (G1T4Q9 1-263): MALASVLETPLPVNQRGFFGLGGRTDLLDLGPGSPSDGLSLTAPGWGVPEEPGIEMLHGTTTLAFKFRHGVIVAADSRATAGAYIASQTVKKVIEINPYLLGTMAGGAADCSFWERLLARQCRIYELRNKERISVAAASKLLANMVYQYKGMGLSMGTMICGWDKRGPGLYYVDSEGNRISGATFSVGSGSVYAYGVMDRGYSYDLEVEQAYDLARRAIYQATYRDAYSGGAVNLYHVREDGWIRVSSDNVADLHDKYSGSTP
Experimental: 25 μl of a reaction buffer containing 400 μM of the fluorogenic substrate Suc-Leu-Leu-Val-Tyr-AMC (Bachem) are dispensed per well of a white microtiter plate. Test compounds dissolved in 0.5 μl DMSO are added. To start the reaction; 25 μl of reaction buffer containing 35 ng of enzyme (20S Proteasome, Rabbit, Calbiochem) are added. The increase in fluorescence (excitation at 360 nm; emission at 440 nm) is measured over 30 min at 30° C. at 30″. The IC50's are then determined from the slopes.

[3] = tested on: Primary fibroblasts from donors with Friedreich Ataxia (FRDA); test: BSO assay (cell viability under BSO-induced oxidative stress); type: cell-based, human; conditions: 24 h preincubation, 1 mM BSO; for EC50: Homo sapiens, Fibroblast
How it was run: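 FRDA patient primary fibroblasts were pretreated with compounds for 24 h, then exposed to 1 mM BSO (final) until toxicity appeared in BSO-only controls (typically 16–48 h). Viability was read by calcein AM (1.2 μM)/ethidium homodimer (4 μM) staining, 60 min RT, fluorescence 485/525 nm.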

[4] = target: T2, human μ-calpain (Homo sapiens, UniProt P07384); test: Enzymatic calpain inhibition assay; type: biochemical; conditions: substrate Suc-Leu-Tyr-AMC, read-out: Calp I IC50
T2 construct: purchased Calbiochem
T2 sequence (P07384 1-714): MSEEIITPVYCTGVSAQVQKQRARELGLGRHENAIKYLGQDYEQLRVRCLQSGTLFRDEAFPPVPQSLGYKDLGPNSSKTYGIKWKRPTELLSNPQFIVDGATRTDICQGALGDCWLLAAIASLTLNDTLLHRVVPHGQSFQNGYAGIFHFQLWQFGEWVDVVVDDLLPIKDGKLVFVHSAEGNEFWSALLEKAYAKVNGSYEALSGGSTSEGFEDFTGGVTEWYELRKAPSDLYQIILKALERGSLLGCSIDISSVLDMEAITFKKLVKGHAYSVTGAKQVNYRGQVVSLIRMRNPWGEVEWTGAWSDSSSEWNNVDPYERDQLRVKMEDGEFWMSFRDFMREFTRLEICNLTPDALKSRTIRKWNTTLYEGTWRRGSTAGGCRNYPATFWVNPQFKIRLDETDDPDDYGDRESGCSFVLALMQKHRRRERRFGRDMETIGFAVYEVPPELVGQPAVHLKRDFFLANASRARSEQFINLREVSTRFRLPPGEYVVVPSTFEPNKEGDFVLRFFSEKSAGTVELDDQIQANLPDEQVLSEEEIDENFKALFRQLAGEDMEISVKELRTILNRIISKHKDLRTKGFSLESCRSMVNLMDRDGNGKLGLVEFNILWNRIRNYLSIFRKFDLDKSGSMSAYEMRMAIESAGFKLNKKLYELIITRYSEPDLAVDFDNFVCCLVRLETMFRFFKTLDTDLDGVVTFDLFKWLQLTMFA
T2 sequence (P04632 1-268 partner): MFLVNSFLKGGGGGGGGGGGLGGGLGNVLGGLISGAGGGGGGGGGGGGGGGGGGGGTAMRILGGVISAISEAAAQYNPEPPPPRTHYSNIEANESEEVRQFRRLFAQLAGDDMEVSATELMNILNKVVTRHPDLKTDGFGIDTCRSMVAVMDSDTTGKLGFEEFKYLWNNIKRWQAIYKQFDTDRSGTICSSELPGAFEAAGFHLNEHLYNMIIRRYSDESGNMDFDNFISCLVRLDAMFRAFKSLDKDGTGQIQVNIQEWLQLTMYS
How it was run: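 Human μ-calpain (0.5 μg) with 250 μM Suc-Leu-Tyr-AMC in 100 mM imidazole pH 7.5, 5 mM cysteine, 5 mM CaCl2. AMC fluorescence (ex 360/em 440 nm) followed 30 min at 30 °C; IC50 determined graphically from initial velocities versus inhibitor concentration.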

[5] = tested on: experimental muscular dystrophy in hamster; conditions: cited from earlier work
[6] = tested on: mdx mouse; test: Longterm treatment of mdx mice (model for Duchenne Muscular Dystrophy); type: in vivo; conditions: 3 week old mice, treatment period of 4 weeks
Experimental: The mdx mouse is a well established animal model for Duchenne Muscular Dystrophy (Bulfield G., Siller W. G., Wight P. A., Moore K. J., X chromosome-linked muscular dystrophy (mdx) in the mouse, Proc. Natl. Acad. Sci. USA., 1984, 81(4), 1189-1192). Selected compounds were tested in longterm treatments of mdx mice, according to the procedures described below.
Mouse strains: C57BL/10scsn and C57BL/10scsn mdx mouse strains were purchased at The Jackson Laboratory (ME, USA) and bred inhouse. Mouse males were sacrificed at the age of 3 or 7 weeks by CO2 asphyxiation.
Treatment: Compounds were dissolved in 50% PEG, 50% saline solution and applied by i.p. injection.
Histology: Tibialis anterior (TA) and diaphragm (Dia) muscles were collected and mounted on cork supports using gum tragacanth (Sigma-Aldrich, Germany). The samples were snap-frozen in melting isopentane and stored at −80° C. 12 μm thick cryosections of the mid-belly region of muscles were prepared. For staining, sections were air dried and fixed with 4% PFA in PBS for 5 minutes, washed 3 times with PBS and incubated over night at 4° C. in PBS containing 2 μg/ml Alexa Fluor™ 488 conjugated wheat-germ agglutinin (WGA-Alexa, Molecular Probes, Eugen, Oreg., USA) to stain membrane-bound and extracellular epitopes and 1 μg/ml 4′,6-diamidino-2-phenylindole (DAPI; Molecular Probes) to stain nuclei.
Image acquisition and analysis: Fluorescence microscopy images of both labels were acquired using a digital camera (ColorView II, Soft Imaging System, Munster, Germany) coupled to a fluorescence microscope (Vanox S, Olympus, Tokyo, Japan). Combination of these two stainings to a composite image, assembling of several images to a complete image of the entire muscle cross-section and further semi-automated analysis was performed using the image analysis program AnalySIS (Soft Imaging System). Image analysis of 1200-2900 muscle fibers in each section was performed in three steps: 1) determination of the muscle fiber boundaries, 2) determination of the muscle fiber size, and 3) determination of the percentage of muscle fibers containing centralized nuclei. Six different geometrical parameters were tested for the determination of the muscle fiber size: (a) the “minimal feret” (the minimum distance of parallel tangents at opposing borders of the muscle fiber), (b) the “area”, (c) the “minimal inner diameter” (the minimum diameter through the center of the muscle fiber), (d) the “minimal diameter” (the minimum diameter of a muscle fiber for angles in the range 0° through 179° with step width 1°, (e) the “minimal outer diameter” (the minimum diameter through the muscle fiber from outer border to outer border), and (f) the “perimeter”. The variance coefficient of the muscle fiber size is defined as follows: variance coefficient=(standard deviation of the muscle fiber size/mean of the muscle fiber size of the section)*1000. For statistical analysis of different variance coefficient values Mann-Whitney U test was used.
Selected Examples of the present invention were active in the mdx mouse model at 10 mg/kg/day, using 3 week old mice and a treatment period of 4 weeks (N=5−10).

## CCNC(=O)C(=O)[C@H](Cc1ccc(F)cc1)NC(=O)[C@H](CC(C)C)NC(=O)CCCCC1CCSS1 (some centres unmarked) [Example 39]
[1]
  IC50: 3000 nM
[2]
  IC50: 800 nM
[3]
  BSO EC50: inactive
[4]
  IC50: 35 nM

## CCNC(=O)C(=O)[C@H](Cc1ccc(C)cc1)NC(=O)[C@@H](NC(=O)CCCCC1CCSS1)C(C)C (some centres unmarked) [Example 104]
[1]
  IC50: 350 nM
[2]
  IC50: 180 nM
[3]
  EC50: 300 nM
[4]
  IC50: 70 nM

## Cc1ccc(S(=O)(=O)CNC(=O)C(=O)[C@H](Cc2ccccc2)NC(=O)[C@@H](NC(=O)CCCCC2CCSS2)C(C)C)cc1 (some centres unmarked) [Example 140]
[1]
  IC50: 450 nM
[2]
  IC50: 80 nM
[3]
  EC50: 500 nM
[4]
  IC50: 150 nM

## CC(C)[C@H](NC(=O)CCCCC1CCSS1)C(=O)N[C@@H](Cc1ccc(Br)cc1)C(=O)C(=O)NC1CCCCC1 (some centres unmarked) [Example 57]
[1]
  IC50: 310 nM
[2]
  IC50: > 1000 nM
[3]
  BSO EC50: inactive
[4]
  IC50: 75 nM

## CCNC(=O)C(=O)[C@H](Cc1ccc(OC)cc1)NC(=O)[C@H](CC(C)C)NC(=O)CCCCC1CCSS1 (some centres unmarked) [Example 94]
[1]
  IC50: 1000 nM
[2]
  IC50: 400 nM
[3]
  EC50: 1500 nM
[4]
  IC50: 15 nM

## CCNC(=O)C(=O)[C@H](Cc1ccc(OC)cc1)NC(=O)[C@@H](NC(=O)c1cccc(NC(=O)CCCCC2CCSS2)c1)C(C)C (some centres unmarked) [Example 197]
[1]
  IC50: 250 nM
[2]
  IC50: 420 nM
[4]
  IC50: 46 nM

## CCNC(=O)C(=O)[C@H](Cc1ccc(Br)cc1)NC(=O)[C@@H](NC(=O)CCCCC1CCSS1)C(C)C (some centres unmarked) [Example 53]
[1]
  IC50: 200 nM
[2]
  IC50: 180 nM
[3]
  EC50: 400 nM
[4]
  IC50: 60 nM

## CCNC(=O)C(=O)[C@H](Cc1ccc(OC)cc1)NC(=O)[C@@H](NC(=O)CCCCC1CCC[S+]1[O-])C(C)C (some centres unmarked) [Example 87]
[1]
  IC50: 1200 nM
[2]
  IC50: > 10000 nM
[3]
  EC50: 9000 nM
[4]
  IC50: 400 nM

## CCNC(=O)C(=O)[C@H](Cc1ccc(F)c(F)c1)NC(=O)[C@H](CC(C)C)NC(=O)CCCCC1CCSS1 (some centres unmarked) [Example 47]
[1]
  IC50: 400 nM
[2]
  IC50: 450 nM
[4]
  IC50: 40 nM

## CCNC(=O)C(=O)[C@H](CC1CCCCC1)NC(=O)[C@H](CC(C)C)NC(=O)CCCCC1CCSS1 (some centres unmarked) [Example 151]
[1]
  IC50: 1800 nM
[2]
  IC50: > 100000 nM
[4]
  IC50: 35 nM

## CCOC(=O)[C@H]1O[C@@H]1C(=O)N[C@@H](CC(C)C)C(=O)NCCC(C)C [Example E-64-d]
[5]
  life-prolonging effect: life-prolonging effect

## CCNC(=O)C(=O)[C@H](Cc1ccc(C(F)(F)F)cc1)NC(=O)[C@H](CC(C)C)NC(=O)CCCCC1CCSS1 (some centres unmarked) [Example 124]
[1]
  IC50: 1100 nM
[2]
  IC50: > 1000 nM
[3]
  EC50: 5000 nM
[4]
  IC50: 75 nM

## Z-Val-Phe-H [MDL-28170, reference compound]
[1]
  IC50: 40000 nM
[6]
  activity in the mdx mouse model: did not show statistically significant activity
[2]
  IC50: > 1000 nM

## CCNC(=O)C(=O)[C@H](Cc1ccc(C)cc1)NC(=O)[C@H](CC(C)C)NC(=O)CCCCC1CCSS1 (some centres unmarked) [Example 110]
[1]
  IC50: 500 nM
[2]
  IC50: 280 nM
[3]
  EC50: 500 nM
[4]
  IC50: 30 nM

## CCNC(=O)C(=O)[C@H](Cc1ccc(Cl)cc1)NC(=O)[C@@H](NC(=O)CCCCC1CCSS1)C(C)C (some centres unmarked) [Example 1]
[1]
  IC50: 350 nM
[2]
  IC50: 500 nM
[3]
  EC50: 350 nM
[4]
  IC50: 60 nM

## CCNC(=O)C(=O)[C@H](Cc1ccc(Br)cc1)NC(=O)[C@H](CC(C)C)NC(=O)CCCCC1CCS[S+]1[O-] (some centres unmarked) [Example 65]
[1]
  IC50: 1500 nM
[2]
  IC50: 400 nM
[3]
  EC50: 1000 nM
[4]
  IC50: 15 nM

## CCNC(=O)C(=O)[C@H](Cc1ccc(Cl)cc1)NC(=O)[C@@H](NC(=O)CCCCC1CCCS1)C(C)C (some centres unmarked) [Example 3]
[1]
  IC50: 400 nM
[2]
  IC50: 110 nM
[3]
  EC50: 4000 nM
[4]
  IC50: 100 nM

## CCNC(=O)C(=O)[C@H](Cc1ccc(Br)cc1)NC(=O)[C@H](CC(C)C)NC(=O)CCCCC1SC[C@@H]2NC(=O)N[C@H]12 (some centres unmarked) [Example 164]
[1]
  IC50: 2000 nM
[2]
  IC50: > 1000 nM
[3]
  BSO EC50: inactive
[4]
  IC50: 20 nM
